pEC50: −log10 of the molar value. Read-outs that look alike come from different tables or passages of the source. Starred links: 1 amine or outer side, 2 acyl side, 3 side chain; linkers in the order of their positions; H or OH if unused. Non-standard residues stand in square brackets, D forms with d. Groups on a side chain read outwards from the residue. No end group written: not given here. *: point of attachment. C20 diacid = O=C(O)CCCCCCCCCCCCCCCCCCC(=O)*; C18 diacid = O=C(O)CCCCCCCCCCCCCCCCC(=O)*; γGlu = O=C(O)[C@H](CCC(=O)[*:2])N[*:1]; εLys = N[C@@H](CCCCN[*:1])C(=O)[*:2]; hArg = N=C(N)NCCCC[C@H](N)C(=O)O; AEEA = NCCOCCOCC(=O)O; Aib = CC(C)(N)C(=O)O; Ahx = NCCCCCC(=O)O

What all share (assay type): cell-based
What all share (conditions): CreLuc reporter gene assay

One assay addresses T1, hGLP1R (Homo sapiens, UniProt P43220).
T1 construct: expressed in transfected cells; host or cells: HEK-293 cells carrying a CRE-luciferase reporter gene
Briefly: hGLP1R CreLuc reporter gene assay in 0.5% and 100% plasma. The method in brief:
(§1)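 HEK-293 cells co-expressing GLP-1 or NPY2 receptor and CHO cells expressing GIP receptor, each carrying a CRE-driven luciferase reporter, were stimulated with peptides for 4 hours at 37 °C. Luminescence was read after Bright-Glo addition. EC50 came from 8-point, four-decade curves fitted by variable-slope non-linear regression.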
For orientation: A reporter such as luciferase makes a cellular process visible.

The target in another assay is T2, hGIPR (Homo sapiens, UniProt P48546).
T2 construct: expressed in transfected cells; host or cells: CHO cells carrying a CRE-luciferase reporter gene
T2 sequence (P48546 22-466): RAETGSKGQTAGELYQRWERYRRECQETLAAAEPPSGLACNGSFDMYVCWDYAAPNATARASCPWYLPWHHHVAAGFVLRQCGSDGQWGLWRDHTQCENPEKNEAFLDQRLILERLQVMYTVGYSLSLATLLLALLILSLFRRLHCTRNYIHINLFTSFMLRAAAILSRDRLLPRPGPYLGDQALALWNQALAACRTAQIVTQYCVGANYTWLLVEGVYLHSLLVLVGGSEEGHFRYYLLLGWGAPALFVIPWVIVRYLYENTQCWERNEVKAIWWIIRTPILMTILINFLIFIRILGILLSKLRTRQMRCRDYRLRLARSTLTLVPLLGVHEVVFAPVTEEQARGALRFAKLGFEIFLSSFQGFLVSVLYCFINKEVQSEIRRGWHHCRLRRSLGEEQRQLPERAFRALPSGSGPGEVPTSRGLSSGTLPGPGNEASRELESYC
Briefly: hGIPR CreLuc reporter gene assay in 0.5% and 100% plasma. The method, boiled down:
as §1

The target of the next assay is T3, hNPY2R (Homo sapiens, UniProt P49146).
T3 construct: expressed in transfected cells; host or cells: HEK-293 cells carrying a CRE-luciferase reporter gene
T3 sequence (P49146 1-381): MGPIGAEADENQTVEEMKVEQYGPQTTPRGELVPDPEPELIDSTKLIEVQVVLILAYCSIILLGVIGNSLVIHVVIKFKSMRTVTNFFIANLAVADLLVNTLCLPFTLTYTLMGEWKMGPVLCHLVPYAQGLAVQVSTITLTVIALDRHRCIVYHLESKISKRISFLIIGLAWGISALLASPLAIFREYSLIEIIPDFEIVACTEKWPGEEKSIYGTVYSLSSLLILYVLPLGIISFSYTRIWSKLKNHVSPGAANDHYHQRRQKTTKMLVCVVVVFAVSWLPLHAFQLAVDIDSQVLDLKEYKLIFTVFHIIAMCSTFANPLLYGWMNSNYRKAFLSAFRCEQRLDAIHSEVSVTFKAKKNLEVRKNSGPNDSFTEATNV
Briefly: hNPY2R CreLuc reporter gene assay in 0.5% and 100% plasma. The method, boiled down: as §1

Where [1] appears, read: 0.5% human plasma, read-out: hGLP1R 0.5% hP.
Setting [2] is: 0.5% human plasma, read-out: hGIPR 0.5% hP.
Setting [3] is: 100% human plasma, read-out: hGIPR 100% hP.
Where [4] appears, read: 0.5% human plasma, read-out: hNPY2R 0.5% hP.
[5] abbreviates: 100% human plasma, read-out: hNPY2R 100% hP.
Where [6] appears, read: 100% human plasma, read-out: hGLP1R 100% hP.

T1 sequence (P43220 24-463): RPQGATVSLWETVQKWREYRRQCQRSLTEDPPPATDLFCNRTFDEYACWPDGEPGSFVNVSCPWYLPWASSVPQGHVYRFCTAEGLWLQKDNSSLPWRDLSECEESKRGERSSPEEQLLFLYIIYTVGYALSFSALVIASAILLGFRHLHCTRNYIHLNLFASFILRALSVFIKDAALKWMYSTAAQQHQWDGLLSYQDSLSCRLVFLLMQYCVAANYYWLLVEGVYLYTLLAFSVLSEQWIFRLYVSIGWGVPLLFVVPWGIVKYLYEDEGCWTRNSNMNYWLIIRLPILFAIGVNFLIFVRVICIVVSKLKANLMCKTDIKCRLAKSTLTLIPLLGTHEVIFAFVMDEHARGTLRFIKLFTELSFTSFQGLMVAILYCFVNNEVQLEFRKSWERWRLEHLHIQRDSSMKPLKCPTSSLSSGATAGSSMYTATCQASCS

For the substance “Y[Aib]EGTFTSDYSI[Aib]LEKQAQ[Aib]AFVEWLIK([AEEA-AEEA-γGlu-γGlu-γGlu-C18 diacid])GGPSEGASLRHYYNWLTRQRY-NH2 [Compound 299, Y-Aib-E-G-T-F-T-S-D-Y-S-I-Aib-L-E-K-Q-A-Q-Aib-A-F-V-E-W-L-I-K(1,3)-GGPSEGASLRHYYNWLTRQRY-NH2.C18DA-gGlu-gGlu-gGlu-OEG-OEG(1,2)]”, the pEC50 at hGLP1R (setting [1]) was 10.10; on hGIPR (setting [2]) it was 9.40; on hGIPR (setting [3]) it was 9.15; on hNPY2R (setting [4]), 7.96; at hNPY2R (setting [5]), 7.50.
For the substance “H-Y[Aib]EGTFTSDYSI[Aib]LEKQAQ[Aib]AFVQWLIK([Glu-Glu-Glu-Glu-C18 diacid])GGPSEGASLRHYYNWLTRQRY-NH2 [Compound 281, Y-Aib-E-G-T-F-T-S-D-Y-S-I-Aib-L-E-K-Q-A-Q-Aib-A-F-V-Q-W-L-I-K(1,3)-GGPSEGASLRHYYNWLTRQRY-NH2.C18DA-E-E-E-E(1,2)]”, the pEC50 on hGLP1R (setting [1]) is 10.15; on hGLP1R (setting [6]), 8.75; at hGIPR (setting [2]), 9.55; on hGIPR (setting [3]), 9.16; on hNPY2R (setting [4]), 7.64.
Consider “H-Y[Aib]EGTFTSDYSI[Aib]LEKQAQ[Aib]AFVEWLIK([εLys-γGlu-γGlu-γGlu-γGlu-γGlu-γGlu-C20 diacid])GGPSSGAS[Aib]RHYYNWLT[hArg]QR[dY]-NH2 [Compound 26, Y-Aib-E-G-T-F-T-S-D-Y-S-I-Aib-L-E-K-Q-A-Q-Aib-A-F-V-E-W-L-I-K(1,3)-G-G-P-S-S-G-A-S-Aib-R-H-Y-Y-N-W-L-T-hArg-Q-R-DTyr-NH2.C20DA-gGlu-gGlu-gGlu-gGlu-gGlu-gGlu-eLys(1,2)]”, for which the pEC50 at hGLP1R (setting [1]) was 10.15; on hGLP1R (setting [6]), 8.93; on hGIPR (setting [2]), 10.05; at hGIPR (setting [3]) it was 9.15; on hNPY2R (setting [4]), less than 7.00.
“H-Y[Aib]EGTFTSDYSI[Aib]LEKQAQ[Aib]EFVQWLIK([εLys-γGlu-γGlu-γGlu-γGlu-γGlu-γGlu-C18 diacid])GGPSEGASLRHYYNWLTRQRY-NH2 [Compound 153, Y-Aib-E-G-T-F-T-S-D-Y-S-I-Aib-L-E-K-Q-A-Q-Aib-E-F-V-Q-W-L-I-K(1,3)-GGPSEGASLRHYYNWLTRQRY-NH2.C18DA-gGlu-gGlu-gGlu-gGlu-gGlu-gGlu-eLys(1,2)]”: the pEC50 is 9.60 at hGLP1R (setting [1]); 9.66 at hGIPR (setting [2]); 8.92 at hGIPR (setting [3]); 7.72 at hNPY2R (setting [4]); 7.23 on hNPY2R (setting [5]).
“H-Y[Aib]EGTFTSDYSI[Aib]LEKQAQ[Aib]AFVQWLIK([εLys-γGlu-γGlu-γGlu-γGlu-γGlu-γGlu-C18 diacid])GGPSSGASLRHYYNWLTRQRY-NH2 [Compound 170, Y-Aib-E-G-T-F-T-S-D-Y-S-I-Aib-L-E-K-Q-A-Q-Aib-A-F-V-Q-W-L-I-K(1,3)-GGPSSGASLRHYYNWLTRQRY-NH2.C18DA-gGlu-gGlu-gGlu-gGlu-gGlu-gGlu-eLys(1,2)]”: the pEC50 on hGLP1R (setting [1]) was 10.05; at hGIPR (setting [2]) it was 9.62; at hGIPR (setting [3]) it was 8.94; at hNPY2R (setting [4]) it was 7.72.
On to “Y[Aib]EGTFTSDYSI[Aib]LEKQAQ[Aib]AFVQWLIK([AEEA-AEEA-γGlu-γGlu-γGlu-γGlu-γGlu-C18 diacid])GGPSSGASLRHYYNWLTRQRY-NH2 [Compound 167, Y-Aib-E-G-T-F-T-S-D-Y-S-I-Aib-L-E-K-Q-A-Q-Aib-A-F-V-Q-W-L-I-K(1,3)-GGPSSGASLRHYYNWLTRQRY-NH2.C18DA-gGlu-gGlu-gGlu-gGlu-gGlu-OEG-OEG(1,2)]”, for which the pEC50 at hGLP1R (setting [1]) was 10.40; on hGLP1R (setting [6]), 9.09; at hGIPR (setting [2]), 9.85; at hGIPR (setting [3]) it was 9.31; at hNPY2R (setting [4]) it was 7.98; at hNPY2R (setting [5]), 7.58.
In the case of “H-Y[Aib]EGTFTSDYSI[Aib]LEKQAQ[Aib]AFIEWLIK([AEEA-AEEA-γGlu-γGlu-γGlu-γGlu-C20 diacid])GGPSEGASLRHYYNWLTRQRY-NH2 [Compound 231, Y-Aib-E-G-T-F-T-S-D-Y-S-I-Aib-L-E-K-Q-A-Q-Aib-A-F-I-E-W-L-I-K(1,3)-GGPSEGASLRHYYNWLTRQRY-NH2.C20DA-gGlu-gGlu-gGlu-gGlu-OEG-OEG(1,2)]”, the pEC50 was 9.85 at hGLP1R (setting [1]), 9.48 on hGIPR (setting [2]), 8.84 on hGIPR (setting [3]) and 7.72 at hNPY2R (setting [4]).
As for “H-Y[Aib]EGTFTSDYSI[Aib]LEKQAQ[Aib]AFVEWLIK([εLys-γGlu-γGlu-γGlu-γGlu-γGlu-γGlu-C20 diacid])GGPSSGAS[Aib]RHYYNWLTRQR[dY]-NH2 [Compound 74, Y-Aib-E-G-T-F-T-S-D-Y-S-I-Aib-L-E-K-Q-A-Q-Aib-A-F-V-E-W-L-I-K(1,3)-G-G-P-S-S-G-A-S-Aib-R-H-Y-Y-N-W-L-T-R-Q-R-DTyr-NH2.C20DA-gGlu-gGlu-gGlu-gGlu-gGlu-gGlu-eLys(1,2)]”, the pEC50 is 10.10 at hGLP1R (setting [1]); 8.95 at hGLP1R (setting [6]); 10.00 on hGIPR (setting [2]); 9.21 on hGIPR (setting [3]); 7.27 at hNPY2R (setting [4]).
On to “H-Y[Aib]EGTFTSDYSI[Aib]LEKQAQ[Aib]EFVQWLIK([AEEA-AEEA-γGlu-γGlu-γGlu-γGlu-γGlu-C20 diacid])GGPSSGASLRHYYNWLTRQRY-NH2 [Compound 36, Y-Aib-E-G-T-F-T-S-D-Y-S-I-Aib-L-E-K-Q-A-Q-Aib-E-F-V-Q-W-L-I-K(1,3)-GGPSSGASLRHYYNWLTRQRY-NH2.C20DA-gGlu-gGlu-gGlu-gGlu-gGlu-OEG-OEG(1,2)]”, for which the pEC50 on hGLP1R (setting [1]) was 9.55; on hGIPR (setting [2]) it was 9.59; on hGIPR (setting [3]), 8.80; at hNPY2R (setting [4]), 8.10; on hNPY2R (setting [5]), 7.57.
Take “H-Y[Aib]EGTFTSDYSI[Aib]LEKQAQ[Aib]AFVEWLIK([Ahx-γGlu-γGlu-γGlu-γGlu-γGlu-γGlu-C18 diacid])GGPSEGASLRHYYNWLTRQRY-NH2 [Compound 303, Y-Aib-E-G-T-F-T-S-D-Y-S-I-Aib-L-E-K-Q-A-Q-Aib-A-F-V-E-W-L-I-K(1,3)-GGPSEGASLRHYYNWLTRQRY-NH2.C18DA-gGlu-gGlu-gGlu-gGlu-gGlu-gGlu-AHX(1,2)]”: the pEC50 at hGLP1R (setting [1]) was 9.70; on hGIPR (setting [2]) it was 9.44; on hNPY2R (setting [5]) it was 6.91.
“H-Y[Aib]EGTFTSDYSI[Aib]LEKQAQ[Aib]AFVEWLIK([AEEA-AEEA-γGlu-γGlu-γGlu-γGlu-C18 diacid])GGPSSPASLRHYYNWLTRQRY-NH2 [Compound 158, Y-Aib-E-G-T-F-T-S-D-Y-S-I-Aib-L-E-K-Q-A-Q-Aib-A-F-V-E-W-L-I-K(1,3)-GGPSSPASLRHYYNWLTRQRY-NH2.C18DA-gGlu-gGlu-gGlu-gGlu-OEG-OEG(1,2)]”: the pEC50 was 10.05 at hGLP1R (setting [1]); 9.96 at hGIPR (setting [2]); 9.08 on hGIPR (setting [3]); 7.80 at hNPY2R (setting [4]); 7.40 at hNPY2R (setting [5]).
With “H-Y[Aib]EGTFTSDYSI[Aib]LEKQAQ[Aib]AFVEWLIK([εLys-γGlu-γGlu-γGlu-γGlu-γGlu-γGlu-C20 diacid])GGPSSGASLRHYYNL[Aib]TRQRY-NH2 [Compound 79, Y-Aib-E-G-T-F-T-S-D-Y-S-I-Aib-L-E-K-Q-A-Q-Aib-A-F-V-E-W-L-I-K(1,3)-G-G-P-S-S-G-A-S-L-R-H-Y-Y-N-L-Aib-T-R-Q-R-Y-NH2.C20DA-gGlu-gGlu-gGlu-gGlu-gGlu-gGlu-eLys(1,2)]”, the pEC50 at hGLP1R (setting [1]) is 9.96; at hGIPR (setting [2]) it was 9.54; at hGIPR (setting [3]), 8.73; at hNPY2R (setting [4]), 7.06.
On to “H-Y[Aib]EGTFTSDYSI[Aib]LEKQAQ[Aib]AFVQWLIK([AEEA-AEEA-Glu-Glu-Glu-Glu-C20 diacid])GGPSEGASLRHYYNWLTRQRY-NH2 [Compound 239, Y-Aib-E-G-T-F-T-S-D-Y-S-I-Aib-L-E-K-Q-A-Q-Aib-A-F-V-Q-W-L-I-K(1,3)-GGPSEGASLRHYYNWLTRQRY-NH2.C20DA-E-E-E-E-OEG-OEG(1,2)]”, for which the pEC50 was 9.96 at hGLP1R (setting [1]), 8.32 on hGLP1R (setting [6]), 9.46 on hGIPR (setting [2]) and 7.87 at hNPY2R (setting [4]).

Source of the values: patent publication US20240247080A1, “GLP1/GIP/NPY2 RECEPTOR TRIPLE AGONISTS” (Boehringer Ingelheim International GmbH, priority 2022, published 2024).
